Patent US4147767A, “Albumin medicament carrier system” (priority 1977, dated 1979)

Test system: L-676 mouse embryo fibroblasts
Test: Mouse L-Cell growth inhibition test
Assay type: cell-based
Conditions: 72 hours
Description: L-676 mouse embryo fibroblasts were grown and maintained in liquid shake cultures of Swims-67G medium fortified by the addition of 5% fetal calf serum and supplemented with 1%, 200 millimolar glutamine.
Free drugs (without a carrier) used as controls were solubilized in either sterile distilled water or acetone and then added to the growth medium.
Drug containing HSA spherules were resuspended in growth medium. A sonifying water bath was employed to aid in suspension.
A 10% (v/v) inoculum of L-cells was employed in a final volume of 20 ml of growth medium containing suspended drug-containing microspheres or free control drug. […] All tests were performed in duplicate.

## Sc1ncnc2nc[nH]c12 [6-Mercaptopurine]
50 micrograms drug/ml
  % L-Cell Inhibition: 94%

## Nc1nc2nc[nH]c2c(=S)[nH]1 [6-Thioguanine]
1 microgram drug/ml
  % L-Cell Inhibition: 65%
10 micrograms drug/ml
  % L-Cell Inhibition: 88%
50 micrograms drug/ml
  % L-Cell Inhibition: 92%

## CS(=O)(=O)OCCCCOS(C)(=O)=O [Busulfan]
25.0 μg drug/ml
  % L-Cell Inhibition: 69%

## O=C(O)CCCc1ccc(N(CCCl)CCCl)cc1 [Chlorambucil]
1 microgram drug/ml
  % L-Cell Inhibition: 0%
10 micrograms drug/ml
  % L-Cell Inhibition: 68%
50 micrograms drug/ml
  % L-Cell Inhibition: 97%

## COc1cc2c(c(OC)c1OC)-c1ccc(OC)c(=O)cc1[C@@H](NC(C)=O)CC2 [Colchicine]
1 microgram drug/ml
  % L-Cell Inhibition: 91%
10 micrograms drug/ml
  % L-Cell Inhibition: 99%

## CC(=O)OCC(=O)[C@@]1(O)CC[C@H]2[C@@H]3CCC4=CC(=O)CC[C@]4(C)[C@H]3[C@@H](O)C[C@@]21C [Hydrocortisone Acetate]
1 microgram drug/ml
  % L-Cell Inhibition: 0%
10 micrograms drug/ml
  % L-Cell Inhibition: 0%
50 micrograms drug/ml
  % L-Cell Inhibition: 73%
100 micrograms drug/ml
  % L-Cell Inhibition: 88%

## NC(=O)NO [Hydroxyurea]
1 microgram drug/ml
  % L-Cell Inhibition: 0%
10 micrograms drug/ml
  % L-Cell Inhibition: 22%

## O=c1[nH]cc(F)c(=O)[nH]1 [Pure 5-fluorouracil, 5-fluorouracil]
1 microgram drug/ml
  % L-Cell Inhibition: 67%
10 micrograms drug/ml
  % L-Cell Inhibition: 88%
50 micrograms drug/ml
  % L-Cell Inhibition: 93%
100 micrograms drug/ml
  % L-Cell Inhibition: 93%
